The format of the data set is physicochemical. Particulars: Tris-hydrochloric acid buffer (pH 7.5) 50 mmol/L, magnesium chloride 5 mmol/L, evaluation compound 1 µmol/L, 37°C, 60 minutes, average of duplicate. The protocol: The conversion from the evaluation compounds to brexpiprazole in a buffer (i.e., the stability of the evaluation compounds) was evaluated.
The Example 1 compound was dissolved in acetonitrile/water (1:1, v/v) to 10 mmol/L and further diluted with acetonitrile/water (1:1, v/v) to 100 µmol/L for use.
The other Example compounds and the Reference Example 5 compound to Reference Example 7 compound were each dissolved in DMSO to 10 mmol/L and further diluted with acetonitrile to 100 µmol/L for use, except for the following compounds.
The compounds of Examples 52, 95, 96, 117, and 130 (EX 52, EX 95, EX 96, EX 117, and EX 130) were dissolved in acetonitrile/water (8:2, v/v) to 10 mmol/L and further diluted with acetonitrile to 100 µmol/L for use.
The compound of Example 97 (EX 97) was dissolved in acetonitrile/water (8:2, v/v) to 10 mmol/L and further diluted with acetonitrile/water (8:2, v/v) to 100 µmol/L for use.
The compounds of Examples 15 and 116 (EX 15 and EX 116) were dissolved in DMSO to 1 mmol/L and further diluted with acetonitrile to 100 µmol/L for use.
These evaluation compound solutions were prepared at the time of use.
The reaction was conducted by preparing each reaction solution such that the final concentration of each component was as follows. The test was conducted in duplicate.
For the compounds of Examples 1 to 8, 10 to 19, 26 to 27, 37, 50, 87 to 89, 91, 116, 121, 123, 150, and 151 (EX 1 to EX 8, EX 10 to EX 19, EX 26 to EX 27, EX 37, EX 50, EX 87 to EX 89, EX 91, EX 116, EX 121, EX 123, EX 150, and EX 151), and the compounds of Reference Examples 5 to 7 (REX 5 to REX 7), the reaction solution without the evaluation compound (198 µl) was pre-incubated at 37°C for 3 minutes, and then each of the evaluation compound solutions (2 µl) was added and stirred; thereafter, the reaction was started at 37°C. At 0 minutes or 60 minutes after the start of the reaction, the reaction was stopped by adding and stirring a reaction stop solution (1000 µl) composed of acetonitrile/isopropanol (4:1, v/v) containing internal standard substances. However, the 0-minute reaction sample (198 µl) was prepared by adding the evaluation compound (2 µl) after adding the reaction stop solution (1000 µl). The samples after stopping the reaction were used as the measurement samples. Calibration curve samples with the same composition were prepared (final concentrations of the evaluation compounds and brexpiprazole: 0.01, 0.1, and 1 µmol/L, with the proviso that for the evaluation compounds only, the 0-minute reaction samples were also used as calibration curve samples for 1 µmol/L).
For the compounds of Examples 24 to 25, 28 to 29, 32 to 36, 40 to 49, 51 to 60, 62 to 64, 66 to 77, 80 to 86, 90, 92 to 111, 113, 115, 117 to 120, 122, 124 to 130, 132 to 147, and 152 to 160 (EX 24 to EX 25, EX 28 to EX 29, EX 32 to EX 36, EX 40 to EX 49, EX 51 to EX 60, EX 62 to EX 64, EX 66 to EX 77, EX 80 to EX 86, EX 90, EX 92 to EX 111, EX 113, EX 115, EX 117 to EX 120, EX 122, EX 124 to EX 130, EX 132 to EX 147, and EX 152 to EX 160), the reaction solution without the evaluation compound (148.5 µl) was pre-incubated at 37°C for 3 minutes, and then each of the evaluation compound solutions (1.5 µl) was added and stirred; thereafter, the reaction was started at 37°C. At 0 minutes or 60 minutes after the start of the reaction, the reaction was stopped by adding and stirring a reaction stop solution (600 µl) composed of acetonitrile/isopropanol (4:1, v/v) containing internal standard substances. However, the 0-minute reaction sample (148.5 µl) was prepared by adding the evaluation compound (1.5 µl) after adding the reaction stop solution (600 µl). The samples after stopping the reaction were used as the measurement samples. […]

Turning to `O=c1ccc2ccc(OCCCC[N+]3(COP(=O)([O-])O)CCN(c4cccc5sccc45)CC3)cc2[nH]1` [EX 1, (4-(benzo[b]thiophen-4-yl)-1-((4-((2-oxo-1,2-dihydroquinolin-7-yl)oxy)butyl)piperazin-1-ium-1-yl)methyl hydrogen phosphate], the “Concentration of brexpiprazole formed” value came out at 0 nM and the “Concentration of evaluation compound decreased” value was 0 nM.
Take `O=c1ccc2ccc(OCCCC[N+]3(COP(=O)([O-])OCCCCO)CCN(c4cccc5sccc45)CC3)cc2[nH]1` [EX 10, (4-(benzo[b]thiophen-4-yl)-1-(4-((2-oxo-1,2-dihydroquinolin-7-yl)oxy)butyl)piperazin-1-ium-1-yl)methyl (4-hydroxybutyl) phosphate]: the “Concentration of brexpiprazole formed” value came to 0 nM and the “Concentration of evaluation compound decreased” value was -20 nM.
`O=c1ccc2ccc(OCCCC[N+]3(COP(=O)([O-])OCCCCCCCCO)CCN(c4cccc5sccc45)CC3)cc2[nH]1` [EX 11, (4-(benzo[b]thiophen-4-yl)-1-(4-((2-oxo-1,2-dihydroquinolin-7-yl)oxy)butyl)piperazin-1-ium-1-yl)methyl (8-hydroxyoctyl) phosphate]: the “Concentration of brexpiprazole formed” value amounted to 0 nM and the “Concentration of evaluation compound decreased” value stood at 30 nM.
Turning to `COCCOP(=O)([O-])OC[N+]1(CCCCOc2ccc3ccc(=O)[nH]c3c2)CCN(c2cccc3sccc23)CC1` [EX 12, (4-(benzo[b]thiophen-4-yl)-1-(4-((2-oxo-1,2-dihydroquinolin-7-yl)oxy)butyl)piperazin-1-ium-1-yl)methyl (2-methoxyethyl) phosphate], the “Concentration of brexpiprazole formed” value was determined as 0 nM and the “Concentration of evaluation compound decreased” value turned out to be 20 nM.
Consider `CC(C)C(=O)OCOP(=O)([O-])OC[N+]1(CCCCOc2ccc3ccc(=O)[nH]c3c2)CCN(c2cccc3sccc23)CC1` [EX 24], for which the “Concentration of brexpiprazole formed” value is 0 nM and the “Concentration of evaluation compound decreased” value was -110 nM.
On the same counts, the results for `CC(C)(C)C(=O)OCOP(=O)([O-])OC[N+]1(CCCCOc2ccc3ccc(=O)[nH]c3c2)CCN(c2cccc3sccc23)CC1` [EX 25] are 0 nM and -10 nM.
For `CCCCCCCC(=O)OC(C)OP(=O)([O-])OC[N+]1(CCCCOc2ccc3ccc(=O)[nH]c3c2)CCN(c2cccc3sccc23)CC1` (stereo not shown) [EX 26], the “Concentration of brexpiprazole formed” value came to 0 nM and the “Concentration of evaluation compound decreased” value stood at 50 nM.
As for `CCCCCCCC(=O)OCOP(=O)([O-])OC[N+]1(CCCCOc2ccc3ccc(=O)[nH]c3c2)CCN(c2cccc3sccc23)CC1` [EX 27], the “Concentration of brexpiprazole formed” value was 0 nM and the “Concentration of evaluation compound decreased” value amounted to 0 nM.
With `COCCC(=O)OCOP(=O)([O-])OC[N+]1(CCCCOc2ccc3ccc(=O)[nH]c3c2)CCN(c2cccc3sccc23)CC1` [EX 28], the “Concentration of brexpiprazole formed” value is -10 nM and the “Concentration of evaluation compound decreased” value is -70 nM.
`CCOCCC(=O)OCOP(=O)([O-])OC[N+]1(CCCCOc2ccc3ccc(=O)[nH]c3c2)CCN(c2cccc3sccc23)CC1` [EX 29]: the “Concentration of brexpiprazole formed” value turned out to be 0 nM and the “Concentration of evaluation compound decreased” value is -10 nM.
Consider `CCOC(=O)CC(C)(C)CC(=O)OCOP(=O)([O-])OC[N+]1(CCCCOc2ccc3ccc(=O)[nH]c3c2)CCN(c2cccc3sccc23)CC1` [EX 32], for which the “Concentration of brexpiprazole formed” value amounted to 0 nM and the “Concentration of evaluation compound decreased” value worked out at 10 nM.
The like results for `COCCOC(=O)OCOP(=O)([O-])OC[N+]1(CCCCOc2ccc3ccc(=O)[nH]c3c2)CCN(c2cccc3sccc23)CC1` [EX 33] were, in that order, 0 nM and 0 nM.
Take `COCCOCCOC(=O)OCOP(=O)([O-])OC[N+]1(CCCCOc2ccc3ccc(=O)[nH]c3c2)CCN(c2cccc3sccc23)CC1` [EX 34]: the “Concentration of brexpiprazole formed” value worked out at 0 nM and the “Concentration of evaluation compound decreased” value stood at 10 nM.
As for `COCCOCCOCCOC(=O)OCOP(=O)([O-])OC[N+]1(CCCCOc2ccc3ccc(=O)[nH]c3c2)CCN(c2cccc3sccc23)CC1` [EX 35], the “Concentration of brexpiprazole formed” value was 0 nM and the “Concentration of evaluation compound decreased” value is -20 nM.
For `COCCCCOC(=O)OCOP(=O)([O-])OC[N+]1(CCCCOc2ccc3ccc(=O)[nH]c3c2)CCN(c2cccc3sccc23)CC1` [EX 36], the “Concentration of brexpiprazole formed” value is 0 nM and the “Concentration of evaluation compound decreased” value was -40 nM.
On the same counts, the results for `CCCCCCCCOP(=O)([O-])OC[N+]1(CCCCOc2ccc3ccc(=O)[nH]c3c2)CCN(c2cccc3sccc23)CC1` [EX 37] are 0 nM and 60 nM.
On to `CC(O)CCOP(=O)([O-])OC[N+]1(CCCCOc2ccc3ccc(=O)[nH]c3c2)CCN(c2cccc3sccc23)CC1` (stereo not shown) [EX 40], for which the “Concentration of brexpiprazole formed” value was 0 nM and the “Concentration of evaluation compound decreased” value came to 60 nM.
As to `CC(C)(O)CCOP(=O)([O-])OC[N+]1(CCCCOc2ccc3ccc(=O)[nH]c3c2)CCN(c2cccc3sccc23)CC1` [EX 41], the “Concentration of brexpiprazole formed” value was 0 nM and the “Concentration of evaluation compound decreased” value was 70 nM.
In the case of `O=c1ccc2ccc(OCCCC[N+]3(COP(=O)([O-])OC/C=C/CO)CCN(c4cccc5sccc45)CC3)cc2[nH]1` [EX 42], the “Concentration of brexpiprazole formed” value worked out at 0 nM and the “Concentration of evaluation compound decreased” value was determined as 30 nM.
Turning to `O=c1ccc2ccc(OCCCC[N+]3(COP(=O)([O-])OC/C=C\CO)CCN(c4cccc5sccc45)CC3)cc2[nH]1` [EX 43], the “Concentration of brexpiprazole formed” value amounted to 0 nM and the “Concentration of evaluation compound decreased” value is 120 nM.
For the compound `O=c1ccc2ccc(OCCCC[N+]3(COP(=O)([O-])OCCCCCCO)CCN(c4cccc5sccc45)CC3)cc2[nH]1` [EX 44], the “Concentration of brexpiprazole formed” value amounted to 0 nM and the “Concentration of evaluation compound decreased” value was -50 nM.
With `O=c1ccc2ccc(OCCCC[N+]3(COP(=O)([O-])OCCCCCCCO)CCN(c4cccc5sccc45)CC3)cc2[nH]1` [EX 45], the “Concentration of brexpiprazole formed” value is 0 nM and the “Concentration of evaluation compound decreased” value amounted to 70 nM.
Take `O=c1ccc2ccc(OCCCC[N+]3(COP(=O)([O-])OCCCCCCCCCO)CCN(c4cccc5sccc45)CC3)cc2[nH]1` [EX 46]: the “Concentration of brexpiprazole formed” value stood at 0 nM and the “Concentration of evaluation compound decreased” value is 40 nM.
As to `O=c1ccc2ccc(OCCCC[N+]3(COP(=O)([O-])OCC4(CO)CC4)CCN(c4cccc5sccc45)CC3)cc2[nH]1` [EX 47], the “Concentration of brexpiprazole formed” value was 0 nM and the “Concentration of evaluation compound decreased” value came to 0 nM.
For the compound `CC(C)(CO)COP(=O)([O-])OC[N+]1(CCCCOc2ccc3ccc(=O)[nH]c3c2)CCN(c2cccc3sccc23)CC1` [EX 48], the “Concentration of brexpiprazole formed” value was 0 nM and the “Concentration of evaluation compound decreased” value is -30 nM.
Regarding `COCCCOP(=O)([O-])OC[N+]1(CCCCOc2ccc3ccc(=O)[nH]c3c2)CCN(c2cccc3sccc23)CC1` [EX 49], the “Concentration of brexpiprazole formed” value was found to be 0 nM and the “Concentration of evaluation compound decreased” value came to 50 nM.

Values taken from EP4707284A1, “HETEROCYCLIC COMPOUND AND USE THEREOF” (Otsuka Pharmaceutical Co., Ltd., priority 2023, dated 2024).
